Assay results from patent US20230107216A1, “PANTETHEINE DERIVATIVES AND USES THEREOF” (Comet Therapeutics, Inc., priority 2018, published 2023).
Like-named read-outs stand apart in the source and are kept apart here.

Experiments:
[1] = system: Peripheral blood mononuclear cells co-cultured with B-cells (BT system); assay: cells; conditions: Homo sapiens, 72 h
[2] = system: Bronchial epithelial cells (BE3C system); assay: BioMAP BE3C system (IL-1β, TNFα, IFNγ); format: cell-based, human; conditions: procedure of Example 831
[3] = system: Bronchial epithelial cells co-cultured with dermal fibroblast (BF4T system); assay: BioMAP BF4T system (TNFα and IL-4); format: cell-based, human; conditions: for activation at 1 µM / activation at 10 µM: Homo sapiens, 24 h, read-out: % increase in VCAM-1
[4] = system: Coronary artery smooth muscle cells (CASM3C system); assay: BioMAP CASM3C system (IL-1β, TNFα, IFNγ); format: cell-based, human; conditions: for inhibition at 10 µM: Homo sapiens, 24 h, read-out: % decrease in Thrombomodulin
[5] = system: Venular Endothelial cells (HUVEC) (4H system); assay: BioMAP 4H system (IL-4 and histamine); format: cell-based, human; conditions: procedure of Example 826; for inhibition at 1 µM / inhibition at 10 µM: Homo sapiens, HUVEC, 24 h
[6] = 10 uM, procedure of Example 830

## COC(=O)CCC(=O)SCCNC(=O)CCNC(=O)[C@H](OC(=O)CN)C(C)(C)CO [Compound 1294, methyl 4-[(2-[3-[(2R)-2-[(2-aminoacetyl)oxy]-4-hydroxy-3,3-dimethylbutanamido]propanamido]ethyl)sulfanyl]-4-oxobutanoate]
[1]; read-out: % decrease in sIL-17
  inhibition at 1 µM: ≥ 20%
[2]; Homo sapiens, Epithelial cell, 24 h, 1 uM, read-out: % decrease in MMP-1
  inhibition at 1 µM: ≥ 10%
[3]; [6]
  % decrease in tPA: ≥10%
[4]; 1 uM
  % decrease in Tissue Factor: ≥10%
  % decrease in uPAR: ≥10%
[4]; 1 uM, procedure of Example 832
  % decrease in M-CSF: ≥10%
  % decrease in VCAM-1: ≥10%
[4]; 10 uM
  % decrease in HLA-DR: ≥10%
  inhibition at 10 µM: ≥ 20%
[5]; 1 uM
  % decrease in MCP-1: ≥10%

## CCCCCCC(=O)SCCNC(=O)CCNC(=O)[C@H](O)C(C)(C)CO [Compound 372, (2R)—N-(2-[[2-(heptanoylsulfanyl)ethyl]carbamoyl]ethyl)-2,4-dihydroxy-3,3-dimethylbutanamide]
[1]; read-out: % increase in sIL-6
  activation at 1 µM: ≥ 10%
[2]; Homo sapiens, Epithelial cell, 24 h, 10 uM, read-out: % decrease in MMP-1
  inhibition at 10 µM: ≥ 10%
[3]; 1 uM, procedure of Example 830
  activation at 1 µM: ≥ 10%
[4]; 1 uM, procedure of Example 832
  % decrease in LDLR: ≥10%
  % decrease in VCAM-1: ≥10%
[4]; 10 uM
  inhibition at 10 µM: ≥ 10%
[5]; 1 uM, read-out: % decrease in E-Selectin
  inhibition at 1 µM: ≥ 10%

## CC(C)(COC(=O)OCC[N+](C)(C)C)[C@@H](O)C(=O)NCCC(=O)NCCSC(=O)CCC(=O)O [Compound 116, [2-([[(3R)-3-[[2-([2-[(3-carboxypropanoyl)sulfanyl]ethyl]carbamoyl)ethyl]carbamoyl]-3-hydroxy-2,2-dimethylpropoxy]carbonyl]oxy)ethyl]trimethylazanium]
[3]; 1 uM, procedure of Example 830
  % increase in MMP-3: ≥10%
  % increase in keratin 8/18: ≥10%
[3]; 10 uM
  % decrease in IL-1α: ≥10%
[3]; [6]
  activation at 10 µM: ≥ 10%
[4]; 1 uM, procedure of Example 832
  % decrease in Proliferation: ≥10%

## CC(C)(CO)[C@@H](O)C(=O)NCCC(=O)NCCSC(=O)[C@@H](N)Cc1ccc(O)c(O)c1 [Compound 371, (2R)—N-[2-[(2-[[(2S)-2-amino-3-(3,4-dihydroxyphenyl)propanoyl]sulfanyl]ethyl)carbamoyl]ethyl]-2,4-dihydroxy-3,3-dimethylbutanamide]
[1]; read-out: % decrease in sIL-17
  inhibition at 10 µM: ≥ 20%
[3]; 1 uM, procedure of Example 830
  % increase in MCP-1: ≥10%
  % increase in MMP-9: ≥10%
  activation at 1 µM: ≥ 10%
[3]; [6]
  % increase in Eotaxin-3: ≥10%
[5]; 10 uM, read-out: % decrease in VEGFRII
  inhibition at 10 µM: ≥ 10%

## COC(=O)CCC(=O)SCCNC(=O)CCNC(=O)[C@H](O)C(C)(C)COC(C)=O [Compound 138]
[1]; read-out: % decrease in sIL-17
  inhibition at 1 µM: ≥ 20%
[2]; 1 uM
  % increase in MMP-9: ≥10%
[4]; 10 uM
  inhibition at 10 µM: ≥ 10%
[5]; 1 uM, read-out: % decrease in VEGFRII
  inhibition at 1 µM: ≥ 20%

## COC(=O)CC(SCCNC(=O)CCNC(=O)[C@H](O)C(C)(C)COC(C)=O)C(=O)OC (stereo partly drawn) [Compound 149, 1,4-dimethyl 2-[(2-[3-[(2R)-4-(acetyloxy)-2-hydroxy-3,3-dimethylbutanamido]propanamido]ethyl)sulfanyl]butanedioate]
[2]; 10 uM
  % decrease in tPA: ≥10%
[3]; 1 uM, procedure of Example 830
  % decrease in MMP-9: ≥10%
[3]; [6]
  % increase in Eotaxin-3: ≥10%
  activation at 10 µM: ≥ 10%
[4]; 10 uM, procedure of Example 832
  % increase in IL-6: ≥10%
[4]; 10 uM
  inhibition at 10 µM: ≥ 10%
[5]; 10 uM
  % increase in VEGRII: ≥10%
[5]; 10 uM, read-out: % decrease in E-Selectin
  inhibition at 10 µM: ≥ 10%
